In brackets after ≈: the same amount, converted by molar mass. Where a SMILES comes first, the peptide text is derived from it.
Legend:
[1] = U-tube sodium picrate transport experiment; conditions: 1 mM in chloroform, 20 mM MOPS, 100 mM NaCl, pH 7.4, 25 °C, after 24 h, UV at 356 nm
Description: To assess if these compounds can act as cation carriers, U-tube experiments for sodium picrate transport were performed on 1, Cu(II)[1]Cl2 and Cu(II)[2]Cl2. […] Similarly, a U-tube experiment for chloride transport was performed using lucigenin.[4],[40]
5.7 Preparation of large unilamellar vesicles for CF release assays
A 50 mM 5(6)-carboxyfluorescein (CF) solution in MOPS buffer (20 mM MOPS, 100 mM NaCl, pH 7.4) was prepared by dissolving 5/6-CF in MOPS buffer, adding a sodium hydroxide (1M) solution dropwise until pH 11 was reached. The resulting solution was the slowly acidified to pH 7.4.
EYPC-cholesterol (4:1) 800 nm vesicles were prepared as described above, using the above mentioned 5(6)-carboxyfluorescein (CF) (50 mM) solution. […]
The U-tube was incubated in a water bath at 25 °C and the chloroform phase was stirred at 300 rpm during the entire experiment, ensuring efficient diffusion of any potential carrier-ion complex to the receiving phase. Aliquots (1 mL) were taken from the receiving phase and analysed for the presence of picrate by UV spectroscopy (at 356 nm). […]
Figure S11: U-tube metal picrate transport data for foldamer 1 (brown), Cu[2]Cl2 (black), Cu[1]Cl2 (green), and the control transporter, dibenzo-18-crown-6 (red). Absorbance at 356 nm. […]

[2] = HPTS assay of ionophoric activity in phospholipid vesicles; format: biochemical; conditions: Table S1, HPTS assay
Description: The membrane activity of 1, 2, Cu[1]Cl2 and Cu[2]Cl2 was assessed in phospholipid vesicle membranes using 8-hydroxypyrene-1,3,6-trisulfonate (HPTS) assays. HPTS assays can show ionophoric activity that occurs via any combination of M^+/H^+ antiport, X^–/OH^– antiport, M^+/OH^– symport and X^–/H^+ symport.
The HPTS assays of 1, 2, Cu[1]Cl2 and Cu[2]Cl2 used 1 : 4 cholesterol : egg yolk phosphatidylcholine (EYPC) vesicles in MOPS buffer (pH 7.4) with 100 mM of an appropriate salt (e.g. KCl, KBr, NaCl), following previously reported procedures.[16] The resulting normalised data were fitted to pseudo first-order rate equations as an approximation (see the ESI ^†).[32] Although the change in fluorescence after the “burst phase” is likely to arise from multiple processes, including inter-vesicle transfer of foldamers,[33] this fitting allows the relative effectiveness of each compound to be compared.
CuCl2 was added at 2 min, followed by addition of 2.2 eq. EDTA at 3 min.
5.1 Preparation of large unilamellar vesicles for HPTS assays
The HPTS assays of 1, 2, Cu[1]Cl2 and Cu[2]Cl2 used 1:4 cholesterol:egg yolk phosphatidylcholine (EYPC) vesicles in MOPS buffer (pH 7.4) with 100 mM of an appropriate salt (e.g. KCl, KBr, NaCl).5 Aliquots of 1, 2, Cu[1]Cl2 or Cu[2]Cl2 dissolved in methanol were mixed with the vesicle suspensions for 60 s before adding a base pulse to change the external pH to 8.4.6 The resulting change in HPTS fluorescence was followed for 6 min, then Triton X-100 was added at 7 min to lyse the vesicles […]. Each assay was repeated three times on new vesicles. The resulting normalized data were fitted to pseudo first-order rate equations as an approximation (see the ESI), similar to the procedure of Regen and co-workers.7 Although the change in fluorescence after the “burst phase” is likely to arise from multiple processes, including inter-vesicle transfer of foldamers,8 this fitting allows the relative effectiveness of each compound to be compared.
Egg yolk phosphatidylcholine (EYPC, 64 μmol) and cholesterol (16 μmol) were dissolved in 2 mL chloroform (spectroscopic grade). The solvent was removed under reduced pressure resulting in a thin film of lipid on the inside wall of the round bottom flask, which was dried further under vacuum for 2 hours. 1.2 mL of a trisodium 8-hydroxypyrene-1,3,6-trisulfonate (HPTS, 100 mM, pH = 7.4) dye in (3-(N-morpholino) propanesulfonic acid) buffer (20 mM MOPS, 100 mM MX (M = K or Na, X = Cl, Br or NO3− adjusted to pH 7.4 using NaOH) were added to the lipid film. Afterwards, the thin film was detached from the sides of the flask by vortex mixing. The resulting lipid suspension was then extruded 19 times through an 800 nm polycarbonate membrane in an Avestin Liposofast extruder to give a suspension of 800 nm large unilamellar vesicles. Unencapsulated HPTS dye was removed by gel permeation chromatography on PD-10 SEC columns (Sephadex G-25). Hereby 1 mL of the 800 nm vesicle suspension was diluted to 2.5 mL with 20 mM MOPS buffer solution and loaded onto the GPC column. The suspension run onto the column, followed by 3.5 mL of 20 mM MOPS buffer, which were collected, giving a stock vesicle solution of 3.5 mL (final concentration of lipids = 15.23 mM). This solution of vesicles was used directly in the HPTS experiments.
5.2 Procedure for HPTS assays
100 μL of the vesicle stock solution was diluted to 2 mL with 20 mM MOPS buffer (final lipid concentration in cuvette 0.762 mM). To this vesicle suspension was then added 20 μL of the principle compound in methanol (1 mM or 0.6 mM for Cu[2]Cl2) and the cuvette was equipped with a stirrer bar. The cuvette was […]

Solubility = format: physicochemical
Text: Mixing 1 or 2 with CuCl2 or CuCl provided green or blue complexes respectively. […] The blue complexes from the addition of CuCl gave very broad NMR spectra even after preparing fresh samples, which was ascribed to in situ oxidation of Cu(I); Cu(I)(TPA) complexes are very efficient one electron donors and will rapidly reduce alkyl halides[27] and oxygen.[28] Furthermore these blue products gave green solids when dried (see the ESI, Fig. S2 ^†).
Although alamethicin is a very active channel former, its use in the clinic is hampered by its high haemolytic activity.[52] […] It is known that the haemolytic activity of amphipathic peptides, including alamethicin, decreases substantially on a reduction of peptide hydrophobicity and hydrophobic moment.[56]

CC(C)(C)OC(=O)C(C)(C)NC(=O)C(C)(C)NC(=O)C(C)(C)NC(=O)C(C)(C)NC(=O)C(C)(C)NC(=O)C(C)(C)NC(=O)C(C)(C)NC(=O)C(C)(C)n1cc(CN(Cc2ccccn2)Cc2ccccn2)nn1 [foldamer 1] (HELM PEPTIDE1{[CC(C)(C(=O)[*:2])n1cc(CN(Cc2ccccn2)Cc2ccccn2)nn1].[Aib].[Aib].[Aib].[Aib].[Aib].[Aib].[Aib].[CC(C)(C)O[*:1]]}$$$$V2.0)
sodium picrate transport across the bulk chloroform phase [1]: No transport across the bulk phase was observed
Apparent observed rate constant kobs, KBr ([2]; 100 mM KBr, compound 10 µM): 3.3 10−3 s−1
Apparent observed rate constant kobs, KCl ([2]; 100 mM KCl, compound 10 µM): 3 10−3 s−1
Apparent observed rate constant kobs, KNO3 ([2]; 100 mM KNO3, compound 10 µM): 4 10−3 s−1
Apparent observed rate constant kobs, NaCl ([2]; 100 mM NaCl, compound 10 µM, methanol control 1 × 10−3 s−1): 4 10−3 s−1
solubility limit (Solubility): 20 µM (≈ 20.4 µg/mL)

From paper PMC7481839, “Switchable foldamer ion channels with antibacterial activity” (Chemical Science, 2020)
